A word on the EC50: it is the concentration needed to bring the measured effect to its halfway point. Low readings indicate an effect from little substance, high ones a need for much substance. As a reminder, the IC50 is the concentration that inhibits the measured activity by half. A lower IC50 goes with greater potency. The term melting point denotes the temperature of the solid-liquid transition.

Series [1] relates to normal human lung fibroblast Wi-38 cell line. The series can be described thus: MTT cytotoxicity on normal cells. In kind it is cell-based. The settings on record: Wi-38, 72 h, MTT, mean ± SEM; for EC50: Homo sapiens, 50% cell viability; for Wi-38 EC100: safe dose, 100% cell viability. As to the method:
Cytotoxicity of the tested compounds was evaluated using normal human lung fibroblast Wi-38 cell line compared to currently used anticancer drug (doxorubicin) using MTT method was used for assaying cell viability[26] (Supplementary Page S55).
Cytotoxicity test is one of the biological evaluations and screening tests that use human normal and cancer cells in-vitro to observe the effect of the studied compounds on their growth using MTT-based cytotoxicity. Microculture MTT method[26] was used to determine cytotoxic activity of the newly synthesised compounds against normal human lung fibroblast (Wi-38) using doxorubicin (Dox) as standard anticancer drug. The highest IC50 and EC100 values illustrate that the compounds were safe on the proliferation of normal human cells. […]. page 47:
(§1) Cytotoxicity of the tested compounds was evaluated using normal human lung fibroblast Wi-38 cell line compared to currently used anticancer drug (doxorubicin).
Firstly, Wi-38 cell line was subcultured in DMEM medium-contained 10% fetal bovine serum (FBS), then, seeded as 5x10^3 cells per well in 96-well cell culture plate and incubated at 37 °C in 5% CO 2 incubator. Serial concentrations of these compounds and doxorubicin (Dox) were incubat ed with Wi-38 cells for 72 h after 24 h for cell attachment. MTT method was used for assaying cell viability 25. Twenty microliters of 5 mg/ml MTT (Sigma, USA) was added to each well and the plate was incubated at 37 °C for 3 h. Then MTT solution was removed, 100 µl DMSO was used and the absorbance of each well was measured with a microplate reader ( BMG LabTech, Germany) at 570 nm. The effective concentration (IC 50) and safe dose (EC100) values of the tested compounds that cause 50% and 100% cell viability were estimated by the Graphpad Instat software. […]

Series [2] relates to liver cancer cell line (HepG-2). Kind of series: MTT anticancer activity, HepG-2. In kind it is cell-based, human. The following applies: Homo sapiens, HepG2; HepG-2, 72 h, MTT; mean ± SEM. How it is done: (§2) Anticancer effect of the above-mentioned compounds was evaluated using four human cancer cell lines. Colon cancer cells (Caco-2), myeloid leukaemia cell line (NFS-60), liver cancer cell line (HepG-2) and prostate cancer cell line (PC-3) using MTT method was used for assaying cell viability[26] (Supplementary Page S55).
(§3) All final compounds were evaluated against four human cancer cell lines namely; liver cancer (HepG2) (ATCC® HB-8065™), colon cancer (Caco-2) (ATCC® HTB-37™), leukaemia cancer (NFS-60) (ATCC® CRL-1838™), and prostate cancer (PC-3) (ATCC® CRL-1435™) using doxorubicin (Dox) as the reference drug being widely used in tumour management utilising microculture MTT assay, declared by Mosmann[26] (Table 1 in Supplementary Material, Figures 5–8). […]
(§4) MTT method was used for assaying cell viability 25. Twenty microliters of 5 mg/ml MTT (Sigma, USA) was added to each well and the plate was incubated at 37 °C for 3 h. Then MTT solution was removed, 100 µl DMSO was used and the absorbance of each well was measured with a microplate reader ( BMG LabTech, Germany) at 570 nm. The effective concentration (IC 50) and safe dose (EC100) values of the tested compounds that cause 50% and 100% cell viability were estimated by the Graphpad Instat software.
(§5) Determination of the anticancer activity
(§6) Anticancer effect of the above-mentioned compounds was evaluated using four human cancer cell lines. Colon cancer cells (Caco-2) were maintained in DMEM (Lonza, USA) containing 10% FBS while myeloid leukemia cell line (NFS-60), liver cancer cell line (HepG-2) and prostate cancer cell line (PC-3) were cultured in RPMI-1640 (Lonza, USA) supplemented with 10% FBS. All cancer cells (5x10^3 cells/well) were seeded in sterile 96-well plates. After 24h, serial concentrations of the tested compounds and Dox were incubated with four cancer cell lines for 72 h at 37 °C in 5% CO2 incubator. MTT method was done as described above. The Graphpad Instat software was used for calculating the half maximal inhibitory concentration (IC50) values. Furthermore, phase contrast inverted microscope with a digital camera (Olympus, Japan) was used for investigating […]
(§7) safest anticancer compounds. […]

Series [3] concerns prostate cancer cell line (PC-3). The series can be described thus: MTT anticancer activity, PC-3. The following applies: Homo sapiens, 72 h, PC-3, 72 h, mean ± SEM. The class given is cell-based, human. How it is done: as §2, §3, §4, §5, §6, §7
The subject of series [4] is myeloid leukaemia cell line (NFS-60). Kind of series: MTT anticancer activity, NFS-60. The class given is cell-based. The settings on record: NFS-60, 72 h, MTT; mean ± SEM. As to the method: as §2, §3, §4, §5, §6, §7
Series [5] has as its system Colon cancer cells (Caco-2). The series can be described thus: MTT anticancer activity, Caco-2. In kind it is cell-based, human. The following applies: for IC50: Homo sapiens, Caco-2, 72 h, MTT, mean ± SEM; for Caco-2 SI: selectivity index, Wi-38 versus Caco-2. How it is done: as §2
All final compounds were evaluated against four human cancer cell lines namely; liver cancer (HepG2) (ATCC® HB-8065™), colon cancer (Caco-2) (ATCC® HTB-37™), leukaemia cancer (NFS-60) (ATCC® CRL-1838™), and prostate cancer (PC-3) (ATCC® CRL-1435™) using doxorubicin (Dox) as the reference drug being widely used in tumour management utilising microculture MTT assay, declared by Mosmann[26] (Table 1 in Supplementary Material, Figures 5–8).
as §1
Firstly, Wi-38 cell line was subcultured in DMEM medium-contained 10% fetal bovine serum (FBS), then, seeded as 5x10^3 cells per well in 96-well cell culture plate and incubated at 37 °C in 5% CO 2 incubator. Serial concentrations of these compounds and doxorubicin (Dox) were incubat ed with Wi-38 cells for 72 h after 24 h for cell attachment. MTT method was used for assaying cell viability 25. Twenty microliters of 5 mg/ml MTT (Sigma, USA) was added to each well and the plate was incubated at 37 °C for 3 h. Then MTT solution was removed, 100 µl DMSO was used and the absorbance of each well was measured with a microplate reader ( BMG LabTech, Germany) at 570 nm. The effective concentration (IC 50) and safe dose (EC100) values of the tested compounds that cause 50% and 100% cell viability were estimated by the Graphpad Instat software.
as §5, §6, §7

Series [6] concerns the target PIM-2 kinase (Homo sapiens, UniProt Q9P1W9). The series can be described thus: PIM-2 kinase inhibitory activity (Promega kinase assay kit).
From the text: PIM-1 and PIM-2 kinase inhibitory activity
PIM-1 and PIM-2 kinase utilizing PIM-1 and PIM-2 Kinase Assay Kit – Promega Corporation catalog #V4032, following the manufacturer’s instructions 26

PIM-2 kinase, sequence (Q9P1W9 whole entry): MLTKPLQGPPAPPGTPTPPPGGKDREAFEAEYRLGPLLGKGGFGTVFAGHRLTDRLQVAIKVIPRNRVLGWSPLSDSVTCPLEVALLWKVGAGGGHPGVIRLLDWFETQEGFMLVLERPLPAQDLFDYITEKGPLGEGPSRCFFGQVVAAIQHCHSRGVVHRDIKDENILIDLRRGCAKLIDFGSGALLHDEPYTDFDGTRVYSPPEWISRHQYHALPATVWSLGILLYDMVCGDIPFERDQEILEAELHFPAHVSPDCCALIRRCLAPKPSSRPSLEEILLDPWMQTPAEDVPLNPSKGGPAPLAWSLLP

The compound `COc1ccc2nc(N3CCOCC3)c(-c3cc(-c4cccc(O)c4)nc(OCC(=O)Nc4ccccc4)c3C#N)cc2c1` [11g, 2-((3-Cyano-6-(3-hydroxyphenyl)-4-(6-methoxy-2-morpholin-4-yl-quinolin-3-yl)pyridin-2-yl)oxy)-N-phenylacetamide] returned a melting point of 269 to 270 °C. In series [1], the EC50 was 0.186 ± 0.01 µM and the “Wi-38 EC100” value was 0.0450 ± 0.005 µM. Half-maximal inhibition in series [2] (IC50) was put at 0.0628 ± 0.001 µM. Besides, the IC50 in series [3] was 0.0839 ± 0.003 µM. The compound also returned an IC50 in series [4] of 0.103 ± 0.009 µM. For the same compound, in series [5], the IC50 came to 0.0626 ± 0.001 µM and the “Caco-2 SI” value is listed as 2.971.
Compound `COc1ccc2nc(N3CCOCC3)c(-c3cc(-c4cccc(O)c4)nc(OCC(=O)Nc4ccc(Cl)cc4)c3C#N)cc2c1` [11h, N-(4-Chlorophenyl)-2-((3-cyano-6-(3-hydroxyphenyl)-4-(6-methoxy-2-morpholin-4-yl-quinolin-3-yl)pyridin-2-yl)oxy)acetamide] displayed a melting point of 230 to 232 °C. In addition, in series [1], a half-maximal effect (EC50) was put at 0.166 ± 0.003 µM and the “Wi-38 EC100” value was determined as 0.0182 ± 0.001 µM. The same compound returned an IC50 in series [2] of 0.074 ± 0.002 µM. This compound gave an IC50 in series [3] of 0.0709 ± 0.0001 µM. The IC50 in series [4] was determined as 0.0781 ± 0.007 µM. Also, in series [5], the IC50 came out at 0.0829 ± 0.003 µM and the “Caco-2 SI” value stood at 2.002.
Turning to `COc1ccc(NC(=O)COc2nc(-c3cccc(O)c3)cc(-c3cc4cc(OC)ccc4nc3N3CCOCC3)c2C#N)cc1` [11i, 2-((3-Cyano-6-(3-hydroxyphenyl)-4-(6-methoxy-2-morpholin-4-yl-quinolin-3-yl)pyridin-2-yl)oxy)-N-(4-methoxyphenyl)acetamide], the melting point was greater than 300 °C. In addition, in series [1], the EC50 was found to be 0.258 ± 0.031 µM and the “Wi-38 EC100” value is 0.148 ± 0.0001 µM. In series [2], this compound showed an IC50 of 0.0486 µM. This compound also came in with an IC50 in series [3] of 0.0634 ± 0.002 µM. In series [4], this compound showed an IC50 of 0.523 ± 0.04 µM. Also, in series [5], half-maximal inhibition (IC50) required 0.0347 ± 0.003 µM and the “Caco-2 SI” value came to 7.435.
Turning to `N#Cc1c(-c2cc3cc(Cl)ccc3[nH]c2=O)cc(-c2cccc(O)c2)[nH]c1=O` [13b, 4-(6-Chloro-2-oxo-1,2-dihydroquinolin-3-yl)-6-(3-hydroxyphenyl)-2-oxo-1,2-dihydropyridine-3-carbonitrile], the melting point is greater than 300 °C. Further, in series [1], it took 0.0486 ± 0.016 µM to reach a half-maximal effect (EC50) and the “Wi-38 EC100” value is 0.017 ± 0.002 µM. The compound also yielded an IC50 in series [2] of 0.0309 µM. This compound also came in with an IC50 in series [3] of 0.0388 ± 0.003 µM. This compound also displayed an IC50 in series [4] of 0.0337 µM. For the same compound, in series [5], the midpoint of inhibition, the IC50, lay at 0.0484 ± 0.005 µM and the “Caco-2 SI” value was 1.005.
In turn, `N#Cc1c(-c2cc3cc(Cl)ccc3[nH]c2=O)cc(-c2cccc(O)c2)nc1S` [14b, 4-(6-Chloro-2-oxo-1,2-dihydroquinolin-3-yl)-6-(3-hydroxyphenyl)-2-mercaptopyridine-3-carbonitrile] showed a melting point of 227 to 230 °C. For the same compound, in series [1], the EC50 came to 0.196 ± 0.012 µM and the “Wi-38 EC100” value is 0.153 ± 0.005 µM. Moreover, 0.125 ± 0.002 µM corresponded to half-maximal inhibition in series [2] (IC50). This compound showed an IC50 in series [3] of 0.14 ± 0.004 µM. The same compound showed an IC50 in series [4] of 0.135 ± 0.003 µM. Further, in series [5], the IC50 stood at 0.146 ± 0.019 µM and the “Caco-2 SI” value is on record as 1.342.
`COc1ccc2[nH]c(=O)c(-c3cc(-c4cccc(O)c4)nc(S)c3C#N)cc2c1` [14c, 6-(3-Hydroxyphenyl)-2-mercapto-4-(6-methoxy-2-oxo-1,2-dihydroquinolin-3-yl)pyridine-3-carbonitrile] returned a melting point of 278 to 280 °C. In series [1], the EC50 came out at 0.166 ± 0.009 µM and the “Wi-38 EC100” value is 0.0972 ± 0.005 µM. In addition, the IC50 in series [2] turned out to be 0.0557 µM. The IC50 in series [3] was determined as 0.0626 ± 0.0001 µM. Moreover, in series [4], the IC50 amounted to 0.0965 ± 0.004 µM. Further, in series [5], the IC50 came to 0.0842 ± 0.005 µM and the “Caco-2 SI” value was 1.971.
`N#Cc1c(-c2cc3ccccc3[nH]c2=O)cc(-c2cccc(O)c2)nc1N` [15a, 2-Amino-6-(3-hydroxyphenyl)-4-(2-oxo-1,2-dihydroquinolin-3-yl)pyridine-3-carbonitrile]: the melting point was greater than 300 °C. Moreover, in series [1], the EC50 came out at 0.202 ± 0.003 µM and the “Wi-38 EC100” value is 0.0663 ± 0.003 µM. Besides, in series [2], inhibition was half-maximal at 0.108 ± 0.007 µM (IC50). In series [3], this compound registered an IC50 of 0.242 ± 0.037 µM. The compound also gave an IC50 in series [4] of 0.247 ± 0.016 µM. Also, in series [5], the IC50 is 0.191 ± 0.019 µM and the “Caco-2 SI” value came to 1.058.
`N#Cc1c(-c2cc3cc(Cl)ccc3[nH]c2=O)cc(-c2cccc(O)c2)nc1N` [15b, 2-Amino-4-(6-chloro-2-oxo-1,2-dihydroquinolin-3-yl)-6-(3-hydroxyphenyl)pyridine-3-carbonitrile] had a melting point greater than 300 °C. Also, in series [1], the midpoint of the response, the EC50, lay at 0.264 ± 0.006 µM and the “Wi-38 EC100” value was 0.169 ± 0.009 µM. Besides, in series [2], 0.299 ± 0.008 µM corresponded to half-maximal inhibition (IC50). The same compound registered an IC50 in series [3] of 0.196 ± 0.061 µM. In addition, in series [4], half-maximal inhibition (IC50) was put at 0.323 ± 0.007 µM. In addition, in series [5], the IC50 stood at 0.194 ± 0.002 µM and the “Caco-2 SI” value is given as 1.361.
As for `COc1ccc2[nH]c(=O)c(-c3cc(-c4cccc(O)c4)nc(N)c3C#N)cc2c1` [15c, 2-Amino-6-(3-hydroxyphenyl)-4-(6-methoxy-2-oxo-1,2-dihydroquinolin-3-yl)pyridine-3-carbonitrile], the melting point fell in the range of 259 to 260 °C. For the same compound, in series [1], the EC50 came out at 0.121 ± 0.002 µM and the “Wi-38 EC100” value worked out at 0.101 ± 0.005 µM. Further, in series [2], the midpoint of inhibition, the IC50, lay at 0.107 ± 0.011 µM. For the same compound, in series [3], the IC50 was determined as 0.143 ± 0.013 µM. In addition, in series [4], half-maximal inhibition (IC50) required 0.122 ± 0.001 µM. Further, in series [5], half-maximal inhibition (IC50) required 0.141 ± 0.021 µM and the “Caco-2 SI” value was 0.858.
As for `O=c1c(O)c(-c2ccc(O)c(O)c2)oc2cc(O)cc(O)c12` [Quercetin, reference compound], in series [6], the IC50 worked out at 0.61 µM.

(Values after publication PMC9848351, “Discovery of new pyridine-quinoline hybrids as competitive and non-competitive PIM-1 kinase inhibitors with apoptosis induction and caspase 3/7 activation capabilities” (Journal of Enzyme Inhibition and Medicinal Chemistry, 2023).)
